Paper PMC9504018, “The hEag1 K^+ Channel Inhibitor Astemizole Stimulates Ca^2+ Deposition in SaOS-2 and MG-63 Osteosarcoma Cultures” (International Journal of Molecular Sciences, 2022)

Target: T1, hEag1 (Kv10.1) (Homo sapiens, UniProt O95259)
T1 construct: gene KCNH1
T1 sequence (O95259 1-989): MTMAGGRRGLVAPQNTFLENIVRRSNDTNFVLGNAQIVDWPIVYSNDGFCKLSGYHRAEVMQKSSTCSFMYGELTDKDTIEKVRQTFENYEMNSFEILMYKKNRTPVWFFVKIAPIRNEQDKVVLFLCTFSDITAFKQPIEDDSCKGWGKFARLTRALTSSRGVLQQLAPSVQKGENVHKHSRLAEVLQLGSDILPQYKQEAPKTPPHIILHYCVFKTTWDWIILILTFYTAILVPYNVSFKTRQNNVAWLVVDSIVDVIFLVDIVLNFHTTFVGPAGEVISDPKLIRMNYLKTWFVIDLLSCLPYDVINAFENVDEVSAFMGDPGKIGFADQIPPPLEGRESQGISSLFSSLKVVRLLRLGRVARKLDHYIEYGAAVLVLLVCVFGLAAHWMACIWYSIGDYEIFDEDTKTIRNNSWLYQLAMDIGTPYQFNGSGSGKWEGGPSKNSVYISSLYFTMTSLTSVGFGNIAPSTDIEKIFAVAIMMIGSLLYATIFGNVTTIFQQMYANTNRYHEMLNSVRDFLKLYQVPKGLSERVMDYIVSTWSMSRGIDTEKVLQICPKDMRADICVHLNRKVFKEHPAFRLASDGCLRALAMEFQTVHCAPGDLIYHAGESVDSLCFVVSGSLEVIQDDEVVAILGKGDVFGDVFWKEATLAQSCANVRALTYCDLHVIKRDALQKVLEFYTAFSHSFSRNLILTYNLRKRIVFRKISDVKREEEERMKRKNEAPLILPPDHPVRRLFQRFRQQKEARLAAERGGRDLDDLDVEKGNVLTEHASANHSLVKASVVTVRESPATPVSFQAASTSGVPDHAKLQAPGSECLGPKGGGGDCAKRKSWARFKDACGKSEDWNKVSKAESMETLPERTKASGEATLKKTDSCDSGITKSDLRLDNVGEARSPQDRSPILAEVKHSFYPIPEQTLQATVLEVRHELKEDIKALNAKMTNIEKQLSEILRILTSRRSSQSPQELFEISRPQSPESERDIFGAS
Experiment: whole-cell patch clamp of the endogenous current in SaOS-2 cells, six-dose concentration-response
Type: cell-based

`COc1ccc(CCN2CCC(Nc3nc4ccccc4n3Cc3ccc(F)cc3)CC2)cc1` [astemizole] gave an IC50 of ~135 nM.
